Literature values, collected in US20040213782A1, “Compositions of an aquaporin modulating agent and an aqueous humor modulating agent for the treatment of elevated intraocular pressure” (Pharmacia Corporation, priority 2003, published 2004).

Experiments:
[1] = test system: AQP1; conditions: epididymis of rats; Yu et al. (2002)
[2] = among corticosteroids; ophthalmic or systemic administration
[3] = test system: AQP2; conditions: kidney of cardiomyopathic hamsters; Wong and Tsui (2002)

Row | Compound | expression of AQP2 [3] | also measured
1 | CC(=O)Nc1nnc(S(N)(=O)=O)s1 [acetazolamide] | – | level of AQP1 expression [1]: significant decrease
2 | C[C@@H]1C[C@H]2[C@@H]3CCC4=CC(=O)C=C[C@]4(C)[C@@]3(F)[C@@H](O)C[C@]2(C)[C@@]1(O)C(=O)CO [dexamethasone] | – | increase in intraocular pressure [2]: most pronounced increase
3 | CCOC(=O)[C@H](CCc1ccccc1)N[C@@H](C)C(=O)N1CCC[C@H]1C(=O)O [enalapril] | significant decrease | –
4 | angiotensin II (DRVYIHPF; Angiotensin-2; UniProt P01019 25-32, looked up) [peptide that increases the expression of AQP2 in the kidney of cardiomyopathic hamsters] | increases | –
